Drawing on US9351955B2, “Compounds and pharmaceutical compositions thereof for the treatment of cystic fibrosis” (Galapagos NV, priority 2013, dated 2016), this text covers EC50 for 15 molecules.

Common to all, as to format: cell-based
Assay [1] deals with T1, CFTR ΔF508 mutant (Homo sapiens, UniProt P13569, DEL508-508).
T1 construct: expressed in transfected cells; host or cells: CFBE41o- (adenoviral transduction)
In words: YFP-halide influx assay for the CFTR-ΔF508 mutation (384 well, CFBE41o- cells, FDSS/μCell). The following applies: forskolin 10.67 μM, fluorescence after 36 seconds, read-out: EC50 measured by YFP-halide influx assay for the CFTR-ΔF508. In a few lines: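 CFBE41o- cells were adenovirally transduced with ΔF508 CFTR and the YFP H148Q/I152L reporter. Cells were then held 24 h at 27 °C or treated 24 h at 37 °C with a CFTR modulator. Iodide-induced quench was recorded for 2 min, and EC50 was derived from 1−F/F0 at 36 s against compound concentration.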

The target of assay [2] is T1, CFTR ΔF508 mutant. In words: YFP-halide influx assay for the CFTR-ΔF508 mutation (96 well, CFBE41o- cells). To be noted: compounds of the invention, 96 well, forskolin 10.67 μM, read-out: EC50 measured by YFP-halide influx assay for the CFTR-ΔF508. The text has this: 6.1. YFP-Halide Influx Assay for the CFTR-ΔF508 Mutation
The YFP halide influx assay measures the functionality of the cystic fibrosis Transmembrane Conductance regulator (CFTR) channels in the cystic fibrosis bronchial epithelium cell line CFBE41o-. The assay is used to evaluate the capacity of compounds to increase the open probability of existing CFTR channels in the membrane. It makes use of the observation that the yellow fluorescent protein (YFP) variant YFP H148Q, I152L has its fluorescence substantially quenched by halide ions like Cl^− and I^−. (Galietta et al., 2001; Nagai et al., 2002)
For this purpose, CFBE410-cells are seeded in 96 well plates (6000 CFBE cells/well). One day after seeding, the CFBE cells are transduced with adenoviral vectors that direct the expression of the CFTR ΔF508 mutant and of the YFP reporter. Cells are incubated at 27° C., 5% CO2 for 24 hours so as to allow for the proper folding and migration to the membrane of the CFTR channel or treated with a CFTR modulator during 24 h at 37° C.
The […] quenching of fluorescence is recorded immediately after injection of I^− for 7 seconds. The capacity of a compound to increase the channel opening is directly correlated with the decrease in fluorescence, and is expressed as (1-(fluorescence after 7 seconds (F)/fluorescence before injection (F0))) and an EC50 can be derived from a (1−F/F0) vs compound concentration plot.

The next assay has as its target T2, CFTR G551D mutant (Homo sapiens, UniProt P13569, G551D).
T2 construct: expressed in transfected cells; host or cells: HEK293 (reverse transfection with plasmids)
In words: YFP-halide influx assay for the CFTR-G551D mutation (HEK293 cells). To be noted: HEK293 cells expressing CFTR G551D and YFP reporter; forskolin 10.67 μM; read-out: EC50 measured by YFP-halide influx assay for the CFTR-G551D. A digest of the protocol: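 HEK293 cells reverse-transfected with CFTR G551D and halide-sensitive YFP, expressed 24 h at 37 °C. Iodide-induced fluorescence quench recorded for 7 s after I^− injection; response as 1−F/F0, EC50 from concentration plot.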

T2 sequence (P13569 whole entry G551D): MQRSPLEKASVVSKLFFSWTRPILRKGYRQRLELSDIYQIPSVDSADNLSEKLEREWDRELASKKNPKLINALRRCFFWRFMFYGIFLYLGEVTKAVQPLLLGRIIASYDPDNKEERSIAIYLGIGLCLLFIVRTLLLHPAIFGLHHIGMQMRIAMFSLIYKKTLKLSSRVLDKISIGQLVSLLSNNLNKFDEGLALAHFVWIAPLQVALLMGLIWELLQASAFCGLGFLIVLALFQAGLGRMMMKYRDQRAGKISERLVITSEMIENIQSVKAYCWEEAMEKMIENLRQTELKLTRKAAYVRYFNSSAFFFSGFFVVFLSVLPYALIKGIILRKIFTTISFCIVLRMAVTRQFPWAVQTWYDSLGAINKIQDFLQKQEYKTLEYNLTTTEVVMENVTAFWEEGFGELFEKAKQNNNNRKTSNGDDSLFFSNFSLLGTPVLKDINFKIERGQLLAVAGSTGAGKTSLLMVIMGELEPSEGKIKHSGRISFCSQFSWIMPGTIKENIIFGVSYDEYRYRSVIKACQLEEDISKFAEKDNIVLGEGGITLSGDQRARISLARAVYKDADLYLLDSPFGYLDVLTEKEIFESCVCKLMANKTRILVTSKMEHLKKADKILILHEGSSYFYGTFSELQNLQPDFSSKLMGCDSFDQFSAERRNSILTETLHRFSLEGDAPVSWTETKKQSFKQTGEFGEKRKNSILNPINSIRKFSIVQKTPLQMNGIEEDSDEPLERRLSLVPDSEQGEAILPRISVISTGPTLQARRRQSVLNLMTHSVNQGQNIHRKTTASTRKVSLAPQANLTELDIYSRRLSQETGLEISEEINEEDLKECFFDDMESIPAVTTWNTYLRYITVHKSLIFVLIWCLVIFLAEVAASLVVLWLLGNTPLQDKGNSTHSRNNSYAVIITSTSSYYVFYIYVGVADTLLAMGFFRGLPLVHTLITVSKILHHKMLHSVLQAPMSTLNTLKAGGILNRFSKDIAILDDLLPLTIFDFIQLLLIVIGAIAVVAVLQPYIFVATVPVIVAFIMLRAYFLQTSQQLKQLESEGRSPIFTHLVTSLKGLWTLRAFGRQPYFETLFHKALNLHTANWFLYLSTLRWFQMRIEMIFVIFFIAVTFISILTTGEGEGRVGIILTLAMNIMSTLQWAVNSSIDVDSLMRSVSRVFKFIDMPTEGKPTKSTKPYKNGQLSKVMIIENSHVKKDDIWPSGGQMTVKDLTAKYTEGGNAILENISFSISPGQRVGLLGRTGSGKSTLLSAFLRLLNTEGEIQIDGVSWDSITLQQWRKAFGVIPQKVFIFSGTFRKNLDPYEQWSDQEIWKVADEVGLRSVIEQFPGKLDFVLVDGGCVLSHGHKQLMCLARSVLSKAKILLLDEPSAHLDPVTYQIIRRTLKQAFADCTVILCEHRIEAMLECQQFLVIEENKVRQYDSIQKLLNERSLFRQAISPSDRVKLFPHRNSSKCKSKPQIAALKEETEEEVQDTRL
T1 sequence (P13569 with tags, fused parts or gaps DEL508-508): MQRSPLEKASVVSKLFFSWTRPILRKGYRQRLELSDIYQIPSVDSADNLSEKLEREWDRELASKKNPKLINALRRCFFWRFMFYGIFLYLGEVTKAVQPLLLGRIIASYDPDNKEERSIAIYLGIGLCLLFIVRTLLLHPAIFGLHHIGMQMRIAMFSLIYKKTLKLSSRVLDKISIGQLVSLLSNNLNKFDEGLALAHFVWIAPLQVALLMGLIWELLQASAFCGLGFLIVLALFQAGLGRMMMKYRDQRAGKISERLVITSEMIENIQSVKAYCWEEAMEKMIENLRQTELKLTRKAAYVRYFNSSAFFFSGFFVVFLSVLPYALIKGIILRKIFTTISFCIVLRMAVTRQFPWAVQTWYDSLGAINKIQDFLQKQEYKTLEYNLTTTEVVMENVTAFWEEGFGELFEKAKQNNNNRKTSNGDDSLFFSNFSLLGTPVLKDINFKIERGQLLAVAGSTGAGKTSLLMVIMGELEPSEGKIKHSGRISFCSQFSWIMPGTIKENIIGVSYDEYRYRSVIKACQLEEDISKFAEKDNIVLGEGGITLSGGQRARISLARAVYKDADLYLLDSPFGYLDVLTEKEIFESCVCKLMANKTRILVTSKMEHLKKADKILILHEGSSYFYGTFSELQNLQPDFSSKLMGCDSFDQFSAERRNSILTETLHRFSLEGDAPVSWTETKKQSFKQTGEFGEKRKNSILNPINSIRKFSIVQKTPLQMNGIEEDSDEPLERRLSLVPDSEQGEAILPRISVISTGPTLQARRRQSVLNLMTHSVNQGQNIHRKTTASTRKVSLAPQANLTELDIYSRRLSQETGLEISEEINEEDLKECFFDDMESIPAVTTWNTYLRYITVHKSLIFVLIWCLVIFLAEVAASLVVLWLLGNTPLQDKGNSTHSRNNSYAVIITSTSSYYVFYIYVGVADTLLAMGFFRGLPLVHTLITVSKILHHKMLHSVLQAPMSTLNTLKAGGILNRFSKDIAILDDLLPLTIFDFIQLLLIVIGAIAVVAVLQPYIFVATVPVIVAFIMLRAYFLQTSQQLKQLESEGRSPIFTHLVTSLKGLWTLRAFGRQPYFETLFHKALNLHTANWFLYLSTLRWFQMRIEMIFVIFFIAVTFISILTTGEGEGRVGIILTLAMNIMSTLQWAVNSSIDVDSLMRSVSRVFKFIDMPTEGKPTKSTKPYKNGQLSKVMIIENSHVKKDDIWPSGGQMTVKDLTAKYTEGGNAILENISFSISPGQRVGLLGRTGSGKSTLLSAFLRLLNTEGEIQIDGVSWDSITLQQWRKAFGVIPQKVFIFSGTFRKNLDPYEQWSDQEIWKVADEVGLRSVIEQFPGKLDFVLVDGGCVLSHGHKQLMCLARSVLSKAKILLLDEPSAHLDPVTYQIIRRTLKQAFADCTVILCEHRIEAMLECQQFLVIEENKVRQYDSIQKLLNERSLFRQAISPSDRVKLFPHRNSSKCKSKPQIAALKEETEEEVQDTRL

Take `CC1(C)Cc2c(sc(NC(=O)c3[nH]nc4c3COC4)c2C(N)=O)C(C)(C)O1` [Compound 37, N-(3-carbamoyl-5,5,7,7-tetramethyl-5,7-dihydro-4H-thieno[2,3-c]pyran-2-yl)-4,6-dihydro-1H-furo[3,4-c]pyrazole-3-carboxamide]: the EC50 came out at 25.4 nM on CFTR ΔF508 mutant [1], 16 nM on CFTR ΔF508 mutant [2] and 892 nM at CFTR G551D mutant.
The corresponding values for `CC1(C)Cc2c(sc(NC(=O)c3ccccc3F)c2C(N)=O)C(C)(C)O1` [Compound 1, 2-(2-fluorobenzamido)-5,5,7,7-tetramethyl-5,7-dihydro-4H-thieno[2,3-c]pyran-3-carboxamide] are 65.6 nM, 12.2 nM and 282 nM.
For `CC1(C)Cc2c(sc(NC(=O)C3CCNC3=O)c2C(N)=O)C(C)(C)O1` (stereo not drawn) [Compound 30, N-(3-carbamoyl-5,5,7,7-tetramethyl-5,7-dihydro-4H-thieno[2,3-c]pyran-2-yl)-2-oxopyrrolidine-3-carboxamide] the same measures were 101 nM, 141 nM and 6660 nM.
For `CC1(C)Cc2c(sc(NC(=O)c3ccc(F)cc3C(F)(F)F)c2C(N)=O)C(C)(C)O1` [Compound 7, 2-(4-fluoro-2-(trifluoromethyl)benzamido)-5,5,7,7-tetramethyl-5,7-dihydro-4H-thieno[2,3-c]pyran-3-carboxamide] the same measures were 70.3 nM, 60.2 nM and 1090 nM.
Consider `CC1(C)Cc2c(sc(NC(=O)c3ccc(F)cc3F)c2C(N)=O)C(C)(C)O1` [Compound 8, 2-(2,4-difluorobenzamido)-5,5,7,7-tetramethyl-5,7-dihydro-4H-thieno[2,3-c]pyran-3-carboxamide], for which the concentration for a half-maximal effect (EC50) at CFTR ΔF508 mutant [1] was 27.3 nM; at CFTR ΔF508 mutant [2], 22.8 nM; at CFTR G551D mutant, 308 nM.
`CC1(C)Cc2c(sc(NC(=O)c3ccccc3C(F)(F)F)c2C(N)=O)C(C)(C)O1` [Compound 5, 5,5,7,7-tetramethyl-2-(2-(trifluoromethyl)benzamido)-5,7-dihydro-4H-thieno[2,3-c]pyran-3-carboxamide]: the concentration for a half-maximal effect (EC50) at CFTR ΔF508 mutant [1] came to 47.8 nM; at CFTR ΔF508 mutant [2], 63.4 nM; at CFTR G551D mutant, 764 nM.
For `CC1(C)Cc2c(sc(NC(=O)c3cccnc3O)c2C(N)=O)C(C)(C)O1` [Compound 23, N-(3-carbamoyl-5,5,7,7-tetramethyl-5,7-dihydro-4H-thieno[2,3-c]pyran-2-yl)-2-oxo-1,2-dihydropyridine-3-carboxamide] the same measures were 190 nM, 102 nM and 1270 nM.
For `CCc1n[nH]c(C(=O)Nc2sc3c(c2C(N)=O)CC(C)(C)OC3(C)C)c1C` [Compound 19, N-(3-carbamoyl-5,5,7,7-tetramethyl-5,7-dihydro-4H-thieno[2,3-c]pyran-2-yl)-3-ethyl-4-methyl-1H-pyrazole-5-carboxamide] the same measures were 7.33 nM, 41.8 nM and 357 nM.
The corresponding values for `CC1(C)Cc2c(sc(NC(=O)c3ccccc3-c3ncc[nH]3)c2C(N)=O)C(C)(C)O1` [Compound 27, 2-(2-(1H-imidazol-2-yl)benzamido)-5,5,7,7-tetramethyl-5,7-dihydro-4H-thieno[2,3-c]pyran-3-carboxamide] are 189 nM, 440 nM and 1670 nM.
Take `CC1(C)Cc2c(sc(NC(=O)c3n[nH]c4c3COCC4)c2C(N)=O)C(C)(C)O1` [Compound 32, N-(3-carbamoyl-5,5,7,7-tetramethyl-5,7-dihydro-4H-thieno[2,3-c]pyran-2-yl)-1,4,6,7-tetrahydropyrano[4,3-c]pyrazole-3-carboxamide]: the EC50 was 39.6 nM at CFTR ΔF508 mutant [1], 23 nM on CFTR ΔF508 mutant [2] and 854 nM on CFTR G551D mutant.
Turning to `CCc1[nH]nc(C(=O)Nc2sc3c(c2C(N)=O)CC(C)(C)OC3(C)C)c1Cl` [Compound 36, N-(3-carbamoyl-5,5,7,7-tetramethyl-5,7-dihydro-4H-thieno[2,3-c]pyran-2-yl)-4-chloro-5-ethyl-1H-pyrazole-3-carboxamide], the half-maximal effective concentration (EC50) on CFTR ΔF508 mutant [1] was found to be 12.4 nM; on CFTR ΔF508 mutant [2], 13 nM; on CFTR G551D mutant it was 716 nM.
Take `CC1(C)Cc2c(sc(NC(=O)c3cc(C(C)(C)C)[nH]n3)c2C(N)=O)C(C)(C)O1` [Compound 16, 5-tert-butyl-N-(3-carbamoyl-5,5,7,7-tetramethyl-5,7-dihydro-4H-thieno[2,3-c]pyran-2-yl)-1H-pyrazole-3-carboxamide]: the EC50 came to 90.8 nM at CFTR ΔF508 mutant [1], 25.3 nM on CFTR ΔF508 mutant [2] and 5250 nM on CFTR G551D mutant.
On to `Cc1cc(C(=O)Nc2sc3c(c2C(N)=O)CC(C)(C)OC3(C)C)[nH]n1` [Compound 11, N-(3-carbamoyl-5,5,7,7-tetramethyl-5,7-dihydro-4H-thieno[2,3-c]pyran-2-yl)-5-methyl-1H-pyrazole-3-carboxamide], for which the EC50 on CFTR ΔF508 mutant [1] is 12.6 nM; at CFTR ΔF508 mutant [2] it was 27.2 nM; on CFTR G551D mutant it was 590 nM.
For `CC1(C)Cc2c(sc(NC(=O)c3ccccc3NS(C)(=O)=O)c2C(N)=O)C(C)(C)O1` [Compound 28, 5,5,7,7-tetramethyl-2-(2-(methylsulfonamido)benzamido)-5,7-dihydro-4H-thieno[2,3-c]pyran-3-carboxamide] the same measures were 147 nM, 378 nM and 2000 nM.
The corresponding values for `COC(=O)C1(C(=O)Nc2sc3c(c2C(N)=O)CC(C)(C)OC3(C)C)CC1` [Compound 12, methyl 1-(3-carbamoyl-5,5,7,7-tetramethyl-5,7-dihydro-4H-thieno[2,3-c]pyran-2-ylcarbamoyl)cyclopropanecarboxylate] are 197 nM, 952 nM and 3330 nM.

What is called EC50 is the concentration that produces a half-maximal response.
